# Assay results reported in patent US9340600B2 (Indiana University Research and Technology Corporation, priority 2012, dated 2016).
# *1 amine or outer side, *2 acyl side, *3 side chain or, on linkers, in order; H or OH if unused. Where a SMILES comes first, the peptide text is derived from it. Where no end group is shown, it is not given here. Side-chain parts run from the residue outwards. [ ]: non-standard residue; d: D form. The star is where a group is joined. γGlu = O=C(O)[C@H](CCC(=O)[*:2])N[*:1]; Palmitoyl = CCCCCCCCCCCCCCCC(=O)*; Dab = NCC[C@H](N)C(=O)O; Aib = CC(C)(N)C(=O)O
# Assays:
# Type in all cases: cell-based
# glucagon receptor = biological target: T1, glucagon receptor (Homo sapiens, UniProt P47871); test: cAMP induction, firefly luciferase-based reporter assay in HEK293 cells co-transfected with glucagon receptor; details: for EC50: EC50 at Glucagon Receptor
# T1 construct: expressed in transfected cells; host or cells: HEK293
# T1 sequence (P47871 26-477): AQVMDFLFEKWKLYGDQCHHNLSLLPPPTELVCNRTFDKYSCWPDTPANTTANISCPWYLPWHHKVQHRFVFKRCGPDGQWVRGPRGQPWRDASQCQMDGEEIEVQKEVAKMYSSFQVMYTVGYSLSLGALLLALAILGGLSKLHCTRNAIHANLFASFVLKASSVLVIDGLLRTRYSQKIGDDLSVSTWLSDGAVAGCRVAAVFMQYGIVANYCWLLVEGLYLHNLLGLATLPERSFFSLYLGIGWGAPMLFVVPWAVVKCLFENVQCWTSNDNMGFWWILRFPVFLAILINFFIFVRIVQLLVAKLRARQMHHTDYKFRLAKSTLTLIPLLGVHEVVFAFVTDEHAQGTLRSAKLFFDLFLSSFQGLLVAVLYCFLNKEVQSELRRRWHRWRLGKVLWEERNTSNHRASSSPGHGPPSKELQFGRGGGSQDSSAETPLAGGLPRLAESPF
# Excerpt: (§1) This example describes an exemplary method of testing the biological activity of the peptides of the present disclosures, which method involves assaying cAMP synthesis.
# GIP receptor = biological target: T2, GIP receptor (Homo sapiens, UniProt P48546); test: cAMP induction, firefly luciferase-based reporter assay in HEK293 cells co-transfected with GIP receptor; details: EC50 at GIP Receptor
# T2 construct: expressed in transfected cells; host or cells: HEK293
# T2 sequence (P48546 22-466): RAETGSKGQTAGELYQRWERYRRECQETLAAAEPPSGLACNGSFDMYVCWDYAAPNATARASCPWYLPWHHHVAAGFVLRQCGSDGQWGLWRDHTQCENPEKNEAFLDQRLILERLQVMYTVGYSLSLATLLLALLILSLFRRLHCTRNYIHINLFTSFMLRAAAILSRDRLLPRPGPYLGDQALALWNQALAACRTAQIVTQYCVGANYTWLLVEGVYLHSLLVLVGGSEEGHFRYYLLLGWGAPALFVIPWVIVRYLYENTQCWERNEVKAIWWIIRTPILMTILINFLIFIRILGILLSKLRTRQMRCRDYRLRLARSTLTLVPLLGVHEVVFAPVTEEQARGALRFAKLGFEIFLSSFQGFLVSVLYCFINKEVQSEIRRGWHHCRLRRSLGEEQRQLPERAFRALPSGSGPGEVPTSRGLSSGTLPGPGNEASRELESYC
# Excerpt: as §1
# GLP-1 receptor = biological target: T3, GLP-1 receptor (Homo sapiens, UniProt P43220); test: cAMP induction, firefly luciferase-based reporter assay in HEK293 cells co-transfected with GLP-1 receptor; details: EC50 at GLP-1 Receptor
# T3 construct: expressed in transfected cells; host or cells: HEK293
# T3 sequence (P43220 24-463): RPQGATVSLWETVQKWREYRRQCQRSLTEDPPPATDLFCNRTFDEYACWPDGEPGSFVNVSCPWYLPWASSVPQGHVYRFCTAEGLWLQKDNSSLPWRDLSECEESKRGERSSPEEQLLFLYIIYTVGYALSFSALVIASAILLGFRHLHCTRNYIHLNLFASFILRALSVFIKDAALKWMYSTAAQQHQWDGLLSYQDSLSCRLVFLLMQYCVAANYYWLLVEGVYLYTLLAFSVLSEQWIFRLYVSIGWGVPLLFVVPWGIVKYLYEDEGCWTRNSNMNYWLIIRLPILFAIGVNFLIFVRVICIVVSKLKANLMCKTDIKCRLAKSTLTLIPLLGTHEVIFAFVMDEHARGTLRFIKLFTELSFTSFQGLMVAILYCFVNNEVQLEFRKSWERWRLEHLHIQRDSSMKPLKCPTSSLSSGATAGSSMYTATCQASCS
# Excerpt: as §1
# [1] = Table 3, analogs of SEQ ID NO: 18 varying at position 3
# [2] = Table 5, analogs of SEQ ID NO: 10
compound,measurement,setting,value
CCCCCCCCCCCCCCCC(=O)N[C@@H](CCC(=O)NCCCC[C@H](NC(=O)[C@H](CC(=O)O)NC(=O)[C@H](CO)NC(=O)[C@@H](NC(=O)[C@H](Cc1ccccc1)NC(=O)[C@@H](NC(=O)CNC(=O)[C@H](CCNC(C)=O)NC(=O)C(C)(C)NC(=O)[C@@H](N)Cc1c[nH]cn1)[C@@H](C)O)[C@@H](C)O)C(=O)N[C@@H](CO)C(=O)N[C@@H](CCCCN)C(=O)N[C@@H](Cc1ccc(O)cc1)C(=O)N[C@@H](CC(C)C)C(=O)N[C@@H](CCC(=O)O)C(=O)N[C@@H](CCC(=O)O)C(=O)N[C@@H](CCCNC(=N)N)C(=O)N[C@@H](C)C(=O)N[C@@H](C)C(=O)N[C@@H](CCC(N)=O)C(=O)N[C@@H](CCC(=O)O)C(=O)N[C@@H](Cc1ccccc1)C(=O)N[C@H](C(=O)N[C@@H](CCC(N)=O)C(=O)N[C@@H](Cc1c[nH]c2ccccc12)C(=O)N[C@@H](CC(C)C)C(=O)N[C@@H](CC(C)C)C(=O)N[C@@H](CCC(=O)O)C(=O)NCC(=O)NCC(=O)N1CCC[C@H]1C(=O)N[C@@H](CO)C(=O)N[C@@H](CO)C(=O)NCC(=O)N[C@@H](C)C(=O)N1CCC[C@H]1C(=O)N1CCC[C@H]1C(=O)N1CCC[C@H]1C(=O)N[C@@H](CO)C(N)=O)C(C)C)C(=O)O [compound 36] (H-H[Aib][Dab](Ac)GTFTSDK([γGlu-Palmitoyl])SKYLEERAAQEFVQWLLEGGPSSGAPPPS-NH2; N-terminus assumed),EC50,glucagon receptor; [1],9 pM
same,EC50,GIP receptor; [1],14 pM
same,EC50,GLP-1 receptor; [1],3 pM
CCCCCCCCCCCCCCCC(=O)N[C@@H](CCC(=O)NCCCC[C@H](NC(=O)[C@H](CC(=O)O)NC(=O)[C@H](CO)NC(=O)[C@@H](NC(=O)[C@H](Cc1ccccc1)NC(=O)[C@@H](NC(=O)CNC(=O)[C@H](CCC(N)=O)NC(=O)C(C)(C)NC(=O)[C@@H](N)Cc1c[nH]cn1)[C@@H](C)O)[C@@H](C)O)C(=O)N[C@@H](CO)C(=O)N[C@@H](CCCCN)C(=O)N[C@@H](Cc1ccc(O)cc1)C(=O)N[C@@H](CC(C)C)C(=O)N[C@@H](CC(=O)O)C(=O)N[C@@H](CCC(=O)O)C(=O)N[C@@H](CCCNC(=N)N)C(=O)N[C@@H](C)C(=O)N[C@@H](C)C(=O)N[C@@H](CCC(N)=O)C(=O)N[C@@H](CC(=O)O)C(=O)N[C@@H](Cc1ccccc1)C(=O)N[C@H](C(=O)N[C@@H](CCC(N)=O)C(=O)N[C@@H](Cc1c[nH]c2ccccc12)C(=O)N[C@@H](CC(C)C)C(=O)N[C@@H](CC(C)C)C(=O)N[C@@H](CC(=O)O)C(=O)N[C@@H](C)C(=O)NCC(=O)N1CCC[C@H]1C(=O)N[C@@H](CO)C(=O)N[C@@H](CO)C(=O)NCC(=O)N[C@@H](C)C(=O)N1CCC[C@H]1C(=O)N1CCC[C@H]1C(=O)N1CCC[C@H]1C(=O)N[C@@H](CO)C(N)=O)C(C)C)C(=O)O [compound 64] (H-H[Aib]QGTFTSDK([γGlu-Palmitoyl])SKYLDERAAQDFVQWLLDAGPSSGAPPPS-NH2),EC50,glucagon receptor; [2],2 pM
same,EC50,GIP receptor; [2],19 pM
same,EC50,GLP-1 receptor; [2],3 pM
CCCCCCCCCCCCCCCC(=O)N[C@@H](CCC(=O)NCCCC[C@H](NC(=O)[C@H](CC(=O)O)NC(=O)[C@H](CO)NC(=O)[C@@H](NC(=O)[C@H](Cc1ccccc1)NC(=O)[C@@H](NC(=O)CNC(=O)[C@H](CCC(N)=O)NC(=O)C(C)(C)NC(=O)[C@@H](N)Cc1c[nH]cn1)[C@@H](C)O)[C@@H](C)O)C(=O)N[C@@H](CO)C(=O)N[C@@H](CCCCN)C(=O)N[C@@H](Cc1ccc(O)cc1)C(=O)N[C@@H](CC(C)C)C(=O)N[C@@H](CC(=O)O)C(=O)N[C@@H](CCC(=O)O)C(=O)N[C@@H](CCCNC(=N)N)C(=O)N[C@@H](C)C(=O)N[C@@H](C)C(=O)N[C@@H](CCC(N)=O)C(=O)N[C@@H](CC(=O)O)C(=O)N[C@@H](Cc1ccccc1)C(=O)N[C@H](C(=O)N[C@@H](CCC(N)=O)C(=O)N[C@@H](Cc1c[nH]c2ccccc12)C(=O)N[C@@H](CC(C)C)C(=O)N[C@@H](CC(C)C)C(=O)N[C@@H](CC(=O)O)C(=O)NC(C)(C)C(=O)NCC(=O)N1CCC[C@H]1C(=O)N[C@@H](CO)C(=O)N[C@@H](CO)C(=O)NCC(=O)N[C@@H](C)C(=O)N1CCC[C@H]1C(=O)N1CCC[C@H]1C(=O)N1CCC[C@H]1C(=O)N[C@@H](CO)C(N)=O)C(C)C)C(=O)O [compound 65] (H-H[Aib]QGTFTSDK([γGlu-Palmitoyl])SKYLDERAAQDFVQWLLD[Aib]GPSSGAPPPS-NH2; N-terminus assumed),EC50,glucagon receptor; [2],2 pM
same,EC50,GIP receptor; [2],5 pM
same,EC50,GLP-1 receptor; [2],3 pM
CCCCCCCCCCCCCCCC(=O)N[C@@H](CCC(=O)NCCCC[C@H](NC(=O)[C@H](CC(=O)O)NC(=O)[C@H](CO)NC(=O)[C@@H](NC(=O)[C@H](Cc1ccccc1)NC(=O)[C@@H](NC(=O)CNC(=O)[C@H](CC(C)C)NC(=O)C(C)(C)NC(=O)[C@@H](N)Cc1c[nH]cn1)[C@@H](C)O)[C@@H](C)O)C(=O)N[C@@H](CO)C(=O)N[C@@H](CCCCN)C(=O)N[C@@H](Cc1ccc(O)cc1)C(=O)N[C@@H](CC(C)C)C(=O)N[C@@H](CCC(=O)O)C(=O)N[C@@H](CCC(=O)O)C(=O)N[C@@H](CCCNC(=N)N)C(=O)N[C@@H](C)C(=O)N[C@@H](C)C(=O)N[C@@H](CCC(N)=O)C(=O)N[C@@H](CCC(=O)O)C(=O)N[C@@H](Cc1ccccc1)C(=O)N[C@H](C(=O)N[C@@H](CCC(N)=O)C(=O)N[C@@H](Cc1c[nH]c2ccccc12)C(=O)N[C@@H](CC(C)C)C(=O)N[C@@H](CC(C)C)C(=O)N[C@@H](CCC(=O)O)C(=O)NCC(=O)NCC(=O)N1CCC[C@H]1C(=O)N[C@@H](CO)C(=O)N[C@@H](CO)C(=O)NCC(=O)N[C@@H](C)C(=O)N1CCC[C@H]1C(=O)N1CCC[C@H]1C(=O)N1CCC[C@H]1C(=O)N[C@@H](CO)C(N)=O)C(C)C)C(=O)O [compound 32] (H-H[Aib]LGTFTSDK([γGlu-Palmitoyl])SKYLEERAAQEFVQWLLEGGPSSGAPPPS-NH2),EC50 at Glucagon Receptor,glucagon receptor; [1],Not active
same,EC50,GIP receptor; [1],730 pM
same,EC50,GLP-1 receptor; [1],388 pM
H-H[Aib]QGTFTSEYSKYLDERAAQDFVQWLLDGGPSSGAPPPSK([γGlu-γGlu-Palmitoyl])G-NH2 [compound 16],EC50,GLP-1 receptor; Table 1,2 pM
CCCCCCCCCCCCCCCC(=O)N[C@@H](CCC(=O)NCCCC[C@H](NC(=O)[C@H](CC(=O)O)NC(=O)[C@H](CO)NC(=O)[C@@H](NC(=O)[C@H](Cc1ccccc1)NC(=O)[C@@H](NC(=O)CNC(=O)[C@H](CCC(=O)O)NC(=O)C(C)(C)NC(=O)[C@@H](N)Cc1c[nH]cn1)[C@@H](C)O)[C@@H](C)O)C(=O)N[C@@H](CO)C(=O)N[C@@H](CCCCN)C(=O)N[C@@H](Cc1ccc(O)cc1)C(=O)N[C@@H](CC(C)C)C(=O)N[C@@H](CC(=O)O)C(=O)N[C@@H](CCC(=O)O)C(=O)N[C@@H](CCCNC(=N)N)C(=O)N[C@@H](C)C(=O)N[C@@H](C)C(=O)N[C@@H](CCC(N)=O)C(=O)N[C@@H](CC(=O)O)C(=O)N[C@@H](Cc1ccccc1)C(=O)N[C@H](C(=O)N[C@@H](CCC(N)=O)C(=O)N[C@@H](Cc1c[nH]c2ccccc12)C(=O)N[C@@H](CC(C)C)C(=O)N[C@@H](CC(C)C)C(=O)N[C@@H](CCC(=O)O)C(=O)NCC(=O)NCC(=O)N1CCC[C@H]1C(=O)N[C@@H](CO)C(=O)N[C@@H](CO)C(=O)NCC(=O)N[C@@H](C)C(=O)N1CCC[C@H]1C(=O)N1CCC[C@H]1C(=O)N1CCC[C@H]1C(=O)N[C@@H](CO)C(N)=O)C(C)C)C(=O)O [compound 44] (H-H[Aib]EGTFTSDK([γGlu-Palmitoyl])SKYLDERAAQDFVQWLLEGGPSSGAPPPS-NH2),EC50,GLP-1 receptor; Table 1,7 pM
H-H[Aib]QGTFTSDYSKYLEERAAQDFVQWLLDGGPSSGAPPPSK([γGlu-γGlu-Palmitoyl])G-NH2 [compound 15],EC50,glucagon receptor; Table 1,5 pM
same,EC50,GLP-1 receptor; Table 1,3 pM
H[Aib]QGTFTSDYAKYLDERAAQDFVQWLLDGGPSSGAPPPSK([γGlu-γGlu-Palmitoyl])G-NH2 [compound 17],EC50,GIP receptor; Table 1,20 pM
same,EC50,GLP-1 receptor; Table 1,8 pM
